In ChEMBL document CHEMBL5030552, “Computational Design of Potent D-Peptide Inhibitors of SARS-CoV-2” (J Med Chem, 2021):

How the values were obtained:
SARS-CoV-2 [1] = assay: Antiviral activity against SARS-CoV-2 B.1.1.7 variant assessed as neutralization viral infection in Vero cells by measuring cytopathic effect incubated for 4 days by crystal violet staining based assay; type: functional, organism-based; conditions: Severe acute respiratory syndrome coronavirus 2, B.1.1.7, Vero, 96 h
SARS-CoV-2 [2] = assay: Antiviral activity against SARS-CoV-2 B.1.351 variant assessed as neutralization viral infection in Vero cells by measuring cytopathic effect incubated for 4 days by crystal violet staining based assay; type: functional, organism-based; conditions: Severe acute respiratory syndrome coronavirus 2, B.1.351, Vero, 96 h

Row | Structure (SMILES) | IC50 (SARS-CoV-2 [1]) [µM] | IC50 (SARS-CoV-2 [2]) [µM]
1 | CC[C@@H](C)[C@@H](NC(=O)[C@@H](Cc1cnc[nH]1)NC(=O)[C@H](NC(=O)[C@@H](CCC(=O)O)NC(=O)[C@@H](CCC(=O)O)NC(=O)[C@@H](CCSC)NC(=O)[C@@H](CC(C)C)NC(=O)[C@@H](C)NC(=O)[C@@H](Cc1ccc(O)cc1)NC(=O)[C@@H](CC(C)C)NC(=O)[C@@H](C)NC(=O)[C@H](NC(=O)[C@@H](CCC(N)=O)NC(=O)[C@H](N)CC(C)C)[C@H](C)O)[C@H](C)CC)C(=O)N[C@H](C)C(=O)N[C@H](C)C(=O)N[C@H](CC(C)C)C(=O)N[C@H](CCC(=O)O)C(=O)N[C@H](CCCCN)C(=O)N[C@@H](C(=O)N[C@H](Cc1c[nH]c2ccccc12)C(=O)N[C@@H](C(=O)N[C@H](C)C(=O)N[C@H](CC(C)C)C(=O)N[C@H](CCCNC(=N)N)C(=O)N[C@H](Cc1cnc[nH]1)C(=O)N[C@H](CCC(N)=O)C(=O)N[C@H](Cc1ccc(O)cc1)C(=O)N[C@@H](C(=O)O)[C@H](C)O)[C@H](C)O)[C@H](C)O | 5.57 | 7.37
2 | CC[C@@H](C)[C@@H](NC(=O)CNC(=O)[C@@H](CC(C)C)NC(=O)CNC(=O)[C@@H](CCCCN)NC(=O)CNC(=O)[C@@H](CC(=O)O)NC(=O)[C@@H](Cc1ccccc1)NC(=O)[C@H](N)CCCNC(=N)N)C(=O)N[C@H](Cc1ccc(O)cc1)C(=O)N[C@H](CCC(N)=O)C(=O)N[C@H](Cc1ccc(O)cc1)C(=O)N[C@H](CCSC)C(=O)N[C@H](CCC(=O)O)C(=O)N[C@H](CCC(=O)O)C(=O)N[C@@H](C(=O)N[C@H](CCC(=O)O)C(=O)N[C@H](Cc1cnc[nH]1)C(=O)N[C@H](C)C(=O)N[C@H](C)C(=O)N[C@H](CO)C(=O)N[C@H](CCCNC(=N)N)C(=O)N[C@H](Cc1ccccc1)C(=O)N[C@H](C)C(=O)N[C@H](Cc1ccc(O)cc1)C(=O)N[C@H](Cc1ccccc1)C(=O)N[C@H](Cc1ccccc1)C(=O)N[C@H](Cc1ccc(O)cc1)C(=O)N[C@H](CCC(N)=O)C(=O)N[C@H](Cc1cnc[nH]1)C(=O)N[C@H](CC(C)C)C(=O)N[C@H](C)C(=O)O)[C@H](C)CC | 33.4 | 11.1
